Measured values reported in the supplement of paper PMC8671470.

How the values were obtained:
Assay in all cases: cell viability (% survival relative to DMSO control); higher = less cytotoxic
Conditions in all cases: 72 h
[1] = tested on: myeloid leukemia patient primary cells Pat.10
Method in brief: (§1)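 Where an area under the curve appears, it was computed with the drc and PharmacoGx R packages from log-logistic fits. Those fits used four parameters. The underlying viability data came from CellTiter-Glo after 72 h, normalised to DMSO and 10 μM proteasome-inhibitor wells, with thawed, Ficoll-purified AML or CML patient mononuclear cells at 10,000 cells/well in RPMI 1640 with 10% FBS on 384-well plates pre-printed with 70 compounds at five tenfold concentrations (1–10,000 nM) in duplicate.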

[2] = tested on: myeloid leukemia patient primary cells Pat.15
Method in brief: as §1

[3] = tested on: myeloid leukemia patient primary cells Pat.9
Method in brief: as §1

[4] = tested on: myeloid leukemia patient primary cells Pat.11
Method in brief: as §1

[5] = tested on: myeloid leukemia patient primary cells Pat.4
Method in brief: as §1

[6] = tested on: myeloid leukemia patient primary cells Pat.13
Method in brief: as §1

[7] = tested on: myeloid leukemia patient primary cells Pat.1
Method in brief: as §1

[8] = tested on: myeloid leukemia patient primary cells Pat.3
Method in brief: as §1

[9] = tested on: HL-60
Procedure: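 8x8 drug-combination matrices (0-5000 nM; rosiglitazone and lestaurtinib 0-1000 nM) were run in HL-60 cells for 72 h with a CellTiter-Glo read-out. Survival is normalised to DMSO and 10 µM bortezomib and clipped at 100%. Bliss synergy was analysed in SynergyFinder.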

Nc1nc(Cl)nc2c1ncn2[C@H]1C[C@H](O)[C@@H](CO)O1 [Cladribine]
cell viability [%]
Conditions	[1]	[2]	[3]	[4]	[5]	[6]	[7]	[8]
1 nM	95	95.4	84.9	> 100	99	96.2	95.2	92.1
10 nM	33.1	82.7	34	96.6	55.6	54.6	98.3	69.8
100 nM	0.135	88.4	< 0	76.6	13.5	12.5	> 100	7.92
1000 nM	2.16	60.2	1.24	59.8	4.74	4.44	90.3	6.26
10000 nM	6.29	13.9	4.28	63.8	6.11	4.27	94.1	6.06

C=C(C=NNC(=N)N)NNC(=N)N [Mitoguazone]
cell viability [%]
Conditions	[1]	[2]	[3]	[4]	[5]	[6]	[7]	[8]
1 nM	78.7	89.7	75.2	98.8	92.5	88.3	86.1	97.3
10 nM	59.4	82.8	50.8	92.1	82.3	78.5	72.5	82.2
100 nM	13.6	91.4	1.24	> 100	48.1	91.2	93.5	51.4
1000 nM	28.1	69.4	1.6	98.6	92.3	50.8	94.2	4.18
10000 nM	89.2	19.6	57.2	84.1	44.2	> 100	69	53

O=C(C1CC1)N1CC[C@@H](C=C2NNC(=O)N2c2ccc(-c3ccc4occc4c3)cc2)C1 + O=C(c1c2ccccc2cc2ccccc12)N1CCC(N2CCC[C@@H](C(=O)N3CCOCC3)C2)CC1 [CP-640186]
cell viability [%], [9]
Conditions	drug1 concentration 5 nM	drug1 concentration 10 nM	drug1 concentration 50 nM	drug1 concentration 100 nM	drug1 concentration 500 nM	drug1 concentration 1000 nM	drug1 concentration 5000 nM
drug2 concentration 5 nM	79.6	> 100	88.2	88.2	60	71.7	88.2
drug2 concentration 10 nM	96.6	97.7	86.2	86.2	91.2	72	64.5
drug2 concentration 50 nM	90	95.2	82.5	88	81.8	68.2	74.1
drug2 concentration 100 nM	88	90	78.2	90.5	74.4	63.6	72.3
drug2 concentration 500 nM	86.2	88.5	75.1	91.1	70.5	57.8	71.1
drug2 concentration 1000 nM	84	84.2	70.3	75.1	61.5	56.3	79.2
drug2 concentration 5000 nM	77.2	79.4	72	74.6	52.4	53.7	66.5

COc1cc(/C=C/C(=O)N2CCC=CC2=O)cc(OC)c1OC [Piperlongumine]
cell viability [%]
Conditions	[1]	[2]	[3]	[4]	[5]	[6]	[7]	[8]
1 nM	79.5	84	9.44	94.1	82.6	81.8	93.4	60
10 nM	77.8	96.2	76.7	98.5	88.8	98.3	84.5	> 100
100 nM	71.8	98.5	31.8	> 100	68.2	76	70.3	84.6
1000 nM	45.5	70.3	39	> 100	53.9	69	75.6	51.3
10000 nM	> 100	1.42	7.88	5.04	< 0	21.2	3.43	3.72

COC(=O)[C@]12CCC(C)(C)C[C@H]1[C@H]1C(=O)C=C3[C@@]4(C)C=C(C#N)C(=O)C(C)(C)[C@@H]4CC[C@@]3(C)[C@]1(C)CC2 [Bardoxolone methyl]
cell viability [%]
Conditions	[1]	[2]	[3]	[4]	[5]	[6]	[7]	[8]
1 nM	82.4	95.2	65.1	> 100	84.5	86.5	85.8	83.7
10 nM	56	79.4	25.4	91.2	96.4	80.8	68.1	74.8
100 nM	11.8	21.8	0.492	87.7	33.3	57.3	61.9	10.9
1000 nM	2.87	69	0.773	> 100	70	4.17	61.3	0.308
10000 nM	91.9	0.4	3.59	7.29	1.48	31.2	2.44	< 0

O=C(C1CC1)N1CC[C@@H](C=C2NNC(=O)N2c2ccc(-c3ccc4occc4c3)cc2)C1
cell viability [%]
Conditions	[1]	[2]	[3]	[4]	[5]	[6]	[7]	[8]
1 nM	80.8	89.4	95.6	94.6	79.7	85.5	87	93.5
10 nM	46.1	95.2	80.9	98	87.2	96.1	89	> 100
100 nM	50.2	95.7	87.2	99.7	90.8	92.9	> 100	84.2
1000 nM	67	90.3	45.5	91.5	92.1	86.5	96.2	78.8
10000 nM	47.8	84	33.2	88	71.6	80.1	79.7	77.1

CCC(=O)N1CCN(c2ccc(-n3c(=O)ccc4cnc5ccc(-c6cnc7ccccc7c6)cc5c43)cc2C(F)(F)F)CC1 [Torin1]
cell viability [%]
Conditions	[1]	[2]	[3]	[4]	[5]	[6]	[7]	[8]
1 nM	63.9	80.6	80.9	92.9	91.6	91.5	85.1	96.1
10 nM	96.5	55.9	57.7	90.9	76	77.7	60.4	> 100
100 nM	30	20.2	62	85.8	59.8	75.2	44.2	93.2
1000 nM	18.6	14.2	27	56.7	40.2	43	30.2	66.8
10000 nM	9.9	12.1	12.3	39.4	12.8	51	21.5	62.1

O=C(O)C1=CC(=C(c2ccc(O)c(C(=O)O)c2)c2ccc(O)c(C(=O)O)c2)C=CC1=O [Aurintricarboxylic acid]
cell viability [%]
Conditions	[1]	[2]	[3]	[4]	[5]	[6]	[7]	[8]
1 nM	98.4	96.4	> 100	> 100	99.3	89.1	92.9	> 100
10 nM	90.3	> 100	99	95.8	81.2	91.4	94.4	> 100
100 nM	91.9	89.3	88	> 100	83.3	94.1	96.2	99.7
1000 nM	> 100	86.6	> 100	> 100	> 100	> 100	> 100	91.7
10000 nM	> 100	87.3	53.2	> 100	91	93.4	> 100	> 100

O=C(C1CC1)N1CC[C@@H](C=C2NNC(=O)N2c2ccc(-c3ccc4occc4c3)cc2)C1 + CS(=O)(=O)N1CCN(Cc2cc3nc(-c4cccc5[nH]ncc45)nc(N4CCOCC4)c3s2)CC1 [Pictilisib]
cell viability [%], [9]
Conditions	drug1 concentration 5 nM	drug1 concentration 10 nM	drug1 concentration 50 nM	drug1 concentration 100 nM	drug1 concentration 500 nM	drug1 concentration 1000 nM	drug1 concentration 5000 nM
drug2 concentration 5 nM	93	71.7	66.5	59.9	51.3	56.3	51.5
drug2 concentration 10 nM	70	68.5	58.9	60.9	56.7	55.8	52.9
drug2 concentration 50 nM	59.4	61.7	54.4	53.3	52.8	53.1	51
drug2 concentration 100 nM	60.3	58.5	51.3	51.5	45.6	51.7	52.2
drug2 concentration 500 nM	46.9	49	44.4	45.7	34.5	47.1	45
drug2 concentration 1000 nM	46.7	50.8	41.3	44.2	48.4	49.9	39.1
drug2 concentration 5000 nM	38.6	42.6	40.3	33.2	38.6	43.5	36.2

Cc1c(-c2ccc(-c3ccccc3F)cc2)nc2ccc(F)cc2c1C(=O)O [Brequinar]
cell viability [%]
Conditions	[1]	[2]	[3]	[4]	[5]	[6]	[7]	[8]
1 nM	58.9	91.1	88.1	97.9	0.431	> 100	93.1	> 100
10 nM	81.4	85.4	59.6	> 100	90.6	93.4	89.3	58
100 nM	56.6	87.7	36.9	> 100	94.7	96.6	97.5	30
1000 nM	77.9	98.9	50	> 100	87.5	94.2	92.2	33.1
10000 nM	57.7	87.7	10.6	97.7	86.4	84.6	88.6	20.7
